One compound from article PMC11574108, “4-Furanylvinylquinoline derivative as a new scaffold for the design of oxidative stress initiator and glucose transporter inhibitor drugs” (Scientific Reports, 2024) can be followed below.

The structures appear in SMILES notation.

Usually IC50 stands for the concentration that inhibits the measured activity by half.

Type in all cases: cell-based, human
Assay [1] relates to Fas. The assay is described as follows: Western blot, Fas protein level. As for the experimental part: (§1) The cells (500,000) were seeded in 35 mm Petri dishes (Nunc) and incubated in a solution of the tested compound (0.5 µM and 1 µM) for 24 h and 48 h. The cells were then dissociated using trypsin, collected in Eppendorf tubes, and centrifuged at 2,000 rpm. Next, cell pellets were resuspended in complete RIPA buffer containing a Halt Protease Inhibitor Cocktail and Halt Phosphatase Inhibitor Cocktail along with 0.5 M EDTA (all reagents from Thermo Fisher Scientific) and lysed on ice for 20 min. Afterward, the lysates were sonicated and centrifuged at 10,000 rpm for 10 min at 4 °C. The obtained supernatants were collected for further analysis. The protein concentration was determined using a Micro BCA™ Protein Assay Kit (Thermo Fisher Scientific) according to the manufacturer’s procedure. Equal amounts of proteins (16 µg) were electrophoresed on SDS-Page gels and transferred onto nitrocellulose membranes. Novex Sharp Pre-Stained Protein Standard (Thermo Fisher Scientific) was used as a colored molecular weight marker. The membranes were blocked in 5% non-fat milk prepared in TPBS (PBS supplemented by 0.1% Tween-20) for 1 h. After blocking, the membranes were cut, and then incubated with specific primary monoclonal antibodies (all purchased from Cell Signaling) overnight at 4 °C. […]
Background: Immunoblotting shows a protein as a band on a membrane.

Assay [2] deals with p21. The assay is described as follows: Western blot, p21 protein level. The following applies: HCT 116 p53+/+, 0.5 and 1 µM, 24 and 48-h. Here is the method: as §1, with “marker.” for “marker. The membranes were blocked in 5% non-fat milk prepared in TPBS (PBS supplemented by 0.1% Tween-20) for 1 h. After blocking, the membranes were cut, and then incubated with specific primary monoclonal antibodies (all purchased from Cell Signaling) overnight at 4 °C.”
The overexpression of p21 also causes cell cycle inhibition via its binding to the […]. […] The cell cycle in the U-251 cell line was inhibited precisely in the S-phase, and it is, therefore, likely that the p21 protein expression was not detected in the glioma cells tested (data not shown).

Assay [3] has as its system HCT 116 p53+/+. Put plainly: Monolayer antiproliferative MTS assay. The following applies: 2D monolayer; for IC50: MTS, 72-h incubation. An excerpt:
(§2) The human colon carcinoma cell line HCT 116 with wild-type p53 (p53^+/+) and the human glioblastoma cell line U-251 were obtained from ATCC, while the HCT 116 with a p53 deletion (p53^−/−) was kindly provided by Prof. M. Rusin from the Maria Sklodowska-Curie Memorial Cancer Center and Institute of Oncology in Gliwice, Poland. The human chronic myelogenous leukaemia cell line K562 and the normal human cell dermal fibroblast cell line NHDF were purchased from Sigma-Aldrich and PromoCell, respectively. Both the HCT 116 and U-251 cell lines were cultured in Dulbecco’s modified Eagle’s medium (DMEM) supplemented with 10% inactivated foetal bovine serum (FBS). The DMEM for the NHDF contained 15% non-inactivated FBS. K562 cells were cultured in RPMI medium completed by 10% inactivated FBS. Additionally, the media were supplemented with antibiotics (streptomycin and penicillin – 1% v/v; Sigma-Aldrich). The cell culture was conducted in 75 cm^2 flasks (Nunc) under standard conditions (37 °C, 5% CO2 humidified atmosphere). Furthermore, the cell lines were frequently tested for mycoplasma using the qRT-PCR technique with specific Mycoplasma primers to confirm the lack of contamination.
(§3) The cells were seeded in 96-well plates (Nunc) with 5,000 or 4,000 cells per well for the cancer cells and NHDF, respectively, and incubated under standard conditions at 37 °C overnight. The culture media were then changed for freshly prepared solutions of the tested compounds in various concentrations. After 72-h incubation the antiproliferative assay was carried out as follows: the solutions of the compounds were changed in each well to 100 µL DMEM without phenol red and 20 µL of CellTiter 96 AQueous One Solution-MTS (Promega). The plates were incubated for 1 h at 37 °C, and the absorbance was then measured at 490 nm using a multi-plate reader (Synergy 4, BioTek). The experiment for each sample was repeated at least three times.
(§4) Additionally, the compounds were also tested for their cytotoxicity against normal cells – human dermal fibroblasts (NHDF).
In general terms: Tetrazolium dyes change colour on reduction, which living cells bring about.

Assay [4] concerns HCT 116 p53-/-. Put plainly: Monolayer antiproliferative MTS assay. The following applies: 2D monolayer; for IC50: MTS, 72-h incubation.
From the text: as §2, §3, §4

Consider `O=[N+]([O-])c1ccc(/C=C/c2ccnc3ccccc23)o1` [Compound 13], for which the “Fas protein level vs control” value in assay [1] (HCT 116 p53+/+, 24-h) is on record as “more than three-fold increase”. The “Fas protein expression vs untreated cells” value in assay [1] (HCT 116 p53-/-, 48-h) was “four times higher”. Besides, the “p21 protein expression vs control” value in assay [2] is “more than two-fold increase”. In addition, the IC50 is 0.069 ± 0.009 µM in assay [3]; below 0.1 µM in assay [3] (Homo sapiens, HCT-116, 72 h); 0.094 ± 0.01 µM in assay [4]; below 0.1 µM in assay [4] (Homo sapiens, HCT-116, 72 h). For the same compound, the “SI (selectivity index) HCT 116 p53+/+” value in assay [3] (relative to NHDF) turned out to be 9.41. Besides, in assay [4] (relative to NHDF), the “SI (selectivity index) HCT 116 p53-/-” value was found to be 6.90.
